Measured values as given in patent US5576438A, “Isoserine derivatives and their use as leukotriene antagonists” (Leo Pharmaceutical Products Ltd. A/S (L.o slashed.vens …, priority 1992, dated 1996).
Structures can show the parent of a compound that is named as a salt. Where two headings read alike, the source gives them in different places.

Molecular target: T1, LTD4 receptor (Cavia porcellus, UniProt Q2NNR5)
T1 construct: guinea-pig lung membranes; from tissue; host or cells: guinea-pig lung membranes
T1 sequence (Q2NNR5 1-340): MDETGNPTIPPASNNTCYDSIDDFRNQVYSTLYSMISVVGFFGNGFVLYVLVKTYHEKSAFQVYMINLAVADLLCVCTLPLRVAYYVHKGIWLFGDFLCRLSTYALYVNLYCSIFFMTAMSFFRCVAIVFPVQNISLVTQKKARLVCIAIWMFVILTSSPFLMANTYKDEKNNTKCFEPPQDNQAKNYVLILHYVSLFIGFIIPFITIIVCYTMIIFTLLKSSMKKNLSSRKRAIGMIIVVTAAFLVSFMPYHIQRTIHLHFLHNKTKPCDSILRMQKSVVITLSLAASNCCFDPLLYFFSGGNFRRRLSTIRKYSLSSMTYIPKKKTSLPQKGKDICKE
Assay: [3H]LTD4 competition binding to guinea-pig lung membranes
Conditions: negative logarithm of molar concentration, read-out: pIC50 for [3H]LTD4 binding (converted)
From the text: It is of importance to investigate the receptor binding properties of leukotriene antagonists in relation to their inhibition of smooth muscle contraction. Receptor binding studies may be performed with guinea-pig lung membranes in a direct competition assay between a leukotriene antagonist and [^3 H]LTD4 for binding to the LTD4 receptor ^10,^11. […] These values indicate that the affinities of the compounds for the LTD4 receptor are very high, also in the presence of albumin.

[1] = presence of 0.1% human serum albumin

O=C(O)[C@H](O)[C@H](Nc1cccc(/C=C/c2ccc3ccc(Cl)cc3n2)c1)c1ccccc1 (relative stereo) [Example 6, E-(2R,3R;2S,3S)-N-3-[2-(7-chloroquinolyl)-2-ethenyl]-phenyl-3-phenyl isoserine, sodium salt]
IC50 (absence of human serum albumin): 2 nM
IC50 [1]: 6.31 nM

O=C(O)[C@H](O)[C@H](Nc1cccc(/C=C/c2ccc3ccccc3n2)c1)c1ccccc1 (relative stereo) [Example 17, E-(2R,3R;2S,3S)-3-phenyl-N-3-[(2-quinolyl)-2-ethenyl]-phenyl isoserine, sodium salt]
IC50 (absence of human serum albumin): 2.51 nM
IC50 [1]: 20 nM
